Consider two compounds from publication PMC3426542, “A Novel Virulence Strategy for Pseudomonas aeruginosa Mediated by an Autotransporter with Arginine-Specific Aminopeptidase Activity” (PLoS Pathogens, 2012).

This assay concerns the target T1, SGAP (Streptomyces griseus, UniProt P80561).
T1 construct: gene SGR_5809; commercial preparation (Sigma)
Nature of the assay: 4-nitroanilide release at […] nm, commercial enzyme. It is filed as biochemical. As to conditions: 1 mM substrate, MMP, 37 °C.

T1 sequence (P80561 46-329): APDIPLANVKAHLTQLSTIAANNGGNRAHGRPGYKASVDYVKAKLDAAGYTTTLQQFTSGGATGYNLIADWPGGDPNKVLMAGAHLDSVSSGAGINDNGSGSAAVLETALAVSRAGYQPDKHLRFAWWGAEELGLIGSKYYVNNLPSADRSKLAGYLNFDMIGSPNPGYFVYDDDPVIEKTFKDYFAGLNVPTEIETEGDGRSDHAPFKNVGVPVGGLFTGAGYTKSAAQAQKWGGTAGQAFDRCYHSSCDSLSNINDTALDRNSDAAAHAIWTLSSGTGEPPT

Consider `CC(C)C[C@H](N)C(=O)Nc1ccc([N+](=O)[O-])cc1` [leucine-p-nitroanilide], for which the “4-nitroanilide release at 405 nm, commercial enzyme” value was “SGAP clearly released maximal levels of 4-nitroanilide from leucine-p-nitroanilide and methionine-p-nitroanilide”.
Then `CSCC[C@H](N)C(=O)Nc1ccc([N+](=O)[O-])cc1` [methionine-p-nitroanilide], with “SGAP clearly released maximal levels of 4-nitroanilide from leucine-p-nitroanilide and methionine-p-nitroanilide”.
